These molecules were tested on Endogenous Huntingtin Protein (assay: Endogenous Huntingtin Protein Assay (MSD plates, MW1 or MAB2166 capture antibody)). Details: Table 1.
Type: cell-based
Procedure, shortened: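 Endogenous huntingtin was captured overnight at 4° C on wells coated with 1 μg/mL MW1 (polyglutamine-specific) or MAB2166. Detection used rabbit #5656S and then goat anti-rabbit SULFO-TAG, both at 0.25 μg/mL and 1 h at room temperature. Plates were imaged on the MSD system in read buffer T.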

| Molecule | IC50 [nM] |
| --- | --- |
| CN(c1nc2sc(-c3ncc(-c4cn[nH]c4Cl)cc3O)nc2s1)C1CCNCC1 [Compound 220, 5-(5-chloro-1H-pyrazol-4-yl)-2-{5-[methyl(piperidin-4-yl)amino][1,3]thiazolo[5,4-d][1,3]thiazol-2-yl}pyridin-3-ol] | ≤ 100 |
| Cc1cn(-c2cnc(-c3nc4sc(N(C)C5CCNCC5)nc4s3)c(O)c2)cn1 [Compound 221, 5-(4-methyl-1H-imidazol-1-yl)-2-{5-[methyl(piperidin-4-yl)amino][1,3]thiazolo[5,4-d][1,3]thiazol-2-yl}pyridin-3-ol] | ≤ 100 |
| Cc1ncc(-c2cnc(-c3nc4sc(N(C)C5CCNCC5)nc4s3)c(O)c2)s1 [Compound 222, 2-{5-[methyl(piperidin-4-yl)amino][1,3]thiazolo[5,4-d][1,3]thiazol-2-yl}-5-(2-methyl-1,3-thiazol-5-yl)pyridin-3-ol] | ≤ 100 |
| Cc1ncc(-c2cnc(-c3nc4sc(N(C)C5CCNCC5)nc4s3)c(O)c2)o1 [Compound 223, 5-(2-methyl-1,3-oxazol-5-yl)-2-{5-[methyl(piperidin-4-yl)amino][1,3]thiazolo[5,4-d][1,3]thiazol-2-yl}pyridin-3-ol] | ≤ 100 |
| Cc1cc(-c2cnc(-c3nc4sc(N(C)C5CCNCC5)nc4s3)c(O)c2)cnn1 [Compound 224, 2-{5-[methyl(piperidin-4-yl)amino][1,3]thiazolo[5,4-d][1,3]thiazol-2-yl}-5-(6-methylpyridazin-4-yl)pyridin-3-ol] | ≤ 100 |
| CN(c1nc2sc(-c3ncc(-c4ccnnc4)cc3O)nc2s1)C1CCNCC1 [Compound 225, 2-{5-[methyl(piperidin-4-yl)amino][1,3]thiazolo[5,4-d][1,3]thiazol-2-yl}-5-(pyridazin-4-yl)pyridin-3-ol] | ≤ 100 |
| CN(c1nc2sc(-c3cnc(-c4cn[nH]c4)c4[nH]ccc34)nc2s1)C1CCNCC1 [Compound 226, N-methyl-N-(piperidin-4-yl)-5-[7-(1H-pyrazol-4-yl)-1H-pyrrolo[2,3-c]pyridin-4-yl][1,3]thiazolo[5,4-d][1,3]thiazol-2-amine] | ≤ 100 |
| N-methyl-N-[(2S,4R)-2-methylpiperidin-4-yl]-5-[4-(1H-pyrazol-4-yl)-1H-pyrrolo[2,3-c]pyridin-7-yl][1,3]thiazolo[5,4-d][1,3]thiazol-2-amine [Compound 71] | 100 to 500 |
| N-methyl-N-[(2S,4R)-2-methylpiperidin-4-yl]-5-[4-(1H-pyrazol-4-yl)-1H-pyrrolo[2,3-c]pyridin-7-yl][1,3]thiazolo[5,4-d][1,3]thiazol-2-amine [Compound 72] | ≤ 100 |
